Earlier results on one compound are cited in patent US20090137477A1, “Treatment of oropharyngeal candidiasis in cancer patients” (BIOALLIANCE PHARMA, priority 2007, published 2009).

The series concerns oropharyngeal candidiasis. The following applies: orally 50 mg/day for 14 days.

For the compound `OC(Cn1cncn1)(Cn1cncn1)c1ccc(F)cc1F` [fluconazole], the clinical cure was 21% and the clinical response is recorded as 53%.
